According to ChEMBL document CHEMBL1201862, “PubChem BioAssay data set” (2004):
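Five compound concentrations were applied to cells in 96-well plates for 48 hours; endpoints were derived by simple linear interpolation of the resulting dose-response curve. GI50 marks 50% less growth.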 Calls of active or inactive are those of the source. Cut-off read from the data, not from the text of the source: active = GI50 up to about 1.1 µM and inactive = higher.

Experiments:
Experiment in all cases: inhibition of tumour cell growth, NCI panel, 48 h
[1] = tested on: SF-295
[2] = tested on: COLO 205
[3] = tested on: SK-MEL-28
[4] = tested on: HCT-15
[5] = tested on: CCRF-CEM
[6] = tested on: OVCAR-5
[7] = tested on: M14
[8] = tested on: SNB-19
[9] = tested on: UO-31
[10] = tested on: SF-268
[11] = tested on: HOP-62
[12] = tested on: SF-539
[13] = tested on: NCI-H23
[14] = tested on: MOLT-4
[15] = tested on: HL-60
[16] = tested on: A498
[17] = tested on: SR
[18] = tested on: T47D
[19] = tested on: ACHN
[20] = tested on: 786-0
[21] = tested on: LOX IMVI
[22] = tested on: TK-10
[23] = tested on: EKVX
[24] = tested on: SNB-75
[25] = tested on: HCC 2998
[26] = tested on: DU-145
[27] = tested on: SK-MEL-2
[28] = tested on: MDA-MB-435
[29] = tested on: OVCAR-4
[30] = tested on: SW-620
[31] = tested on: MDA-N
[32] = tested on: U-251
[33] = tested on: NCI/ADR-RES
[34] = tested on: OVCAR-8
[35] = tested on: K562
[36] = tested on: HT-29
[37] = tested on: NCI-H522
[38] = tested on: CAKI-1
[39] = tested on: UACC-257
[40] = tested on: UACC-62
[41] = tested on: Hs-578T
[42] = tested on: A549
[43] = tested on: HOP-92
[44] = tested on: BT-549
[45] = tested on: IGROV-1
[46] = tested on: HCT-116
[47] = tested on: KM12
[48] = tested on: OVCAR-3
[49] = tested on: RXF 393
[50] = tested on: SK-OV-3
[51] = tested on: SK-MEL-5
[52] = tested on: Malme-3M
[53] = tested on: NCI-H460
[54] = tested on: PC-3
[55] = tested on: MCF7
[56] = tested on: RPMI-8226
[57] = tested on: MDA-MB-231
[58] = tested on: NCI-H226
[59] = tested on: SN12C

SMILES: Clc1ccc(C2c3ccccc3-c3nc4ccccc4n32)cc1 (stereo not drawn)
- GI50 [1]: 3.48 µM (inactive)
- GI50 [2]: > 61.2 µM (inactive)
- GI50 [3]: > 56.8 µM (inactive)
- GI50 [4]: 17.3 µM
- GI50 [5]: 17.9 µM (inactive)
- GI50 [6]: 25.4 µM (inactive)
- GI50 [7]: 31.8 µM (inactive)
- GI50 [8]: 31.7 µM (inactive)
- GI50 [9]: 4.05 µM (inactive)
- GI50 [10]: 25 µM (inactive)
- GI50 [11]: 16.9 µM (inactive)
- GI50 [12]: > 54.7 µM (inactive)
- GI50 [13]: 15.5 µM (inactive)
- GI50 [14]: 8.09 µM (inactive)
- GI50 [15]: 3.65 µM (inactive)
- GI50 [16]: 25.1 µM (inactive)
- GI50 [17]: 8.99 µM (inactive)
- GI50 [18]: > 27.2 µM (inactive)
- GI50 [19]: 23 µM (inactive)
- GI50 [20]: 17.7 µM (inactive)
- GI50 [21]: 19.7 µM (inactive)
- GI50 [22]: > 66.7 µM (inactive)
- GI50 [23]: 16.5 µM (inactive)
- GI50 [24]: 24.3 µM (inactive)
- GI50 [25]: 18.9 µM (inactive)
- GI50 [26]: 58.2 µM (inactive)
- GI50 [27]: 22.2 µM (inactive)
- GI50 [28]: 32.7 µM (inactive)
- GI50 [29]: 15.9 µM (inactive)
- GI50 [30]: 44.8 µM (inactive)
- GI50 [31]: 51.3 µM (inactive)
- GI50 [32]: 24.3 µM (inactive)
- GI50 [33]: 11.8 µM (inactive)
- GI50 [34]: 18.2 µM (inactive)
- GI50 [35]: > 22.4 µM (inactive)
- GI50 [36]: 20.9 µM (inactive)
- GI50 [37]: 11.6 µM (inactive)
- GI50 [38]: 37.1 µM (inactive)
- GI50 [39]: 53.7 µM (inactive)
- GI50 [40]: 26.3 µM (inactive)
- GI50 [41]: 4.92 µM (inactive)
- GI50 [42]: 7.33 µM (inactive)
- GI50 [43]: 34.8 µM (inactive)
- GI50 [44]: 43.5 µM (inactive)
- GI50 [45]: 12.6 µM (inactive)
- GI50 [46]: 5.09 µM (inactive)
- GI50 [47]: 13 µM (inactive)
- GI50 [48]: 12.6 µM (inactive)
- GI50 [49]: 5.26 µM (inactive)
- GI50 [50]: 3.34 µM (inactive)
- GI50 [51]: 27.4 µM (inactive)
- GI50 [52]: 38.8 µM (inactive)
- GI50 [53]: 19.7 µM (inactive)
- GI50 [54]: 19.4 µM (inactive)
- GI50 [55]: 18.3 µM (inactive)
- GI50 [56]: 9.75 µM (inactive)
- GI50 [57]: > 84.1 µM (inactive)
- GI50 [58]: > 42.5 µM (inactive)
- GI50 [59]: 42.1 µM (inactive)

SMILES: COc1cc2c(cc1O)Cc1c-2[n+](C)cc2cc(OC)c(OC)cc12
- GI50 [1]: 7.89 µM (inactive)
- GI50 [2]: > 74.3 µM (inactive)
- GI50 [3]: > 89.9 µM (inactive)
- GI50 [4]: 24.4 µM
- GI50 [5]: 0.407 µM (active)
- GI50 [6]: > 100 µM (inactive)
- GI50 [7]: 7.19 µM (inactive)
- GI50 [8]: 1.64 µM (inactive)
- GI50 [9]: 8.53 µM (inactive)
- GI50 [10]: 0.472 µM (active)
- GI50 [11]: 6.61 µM (inactive)
- GI50 [12]: 1.82 µM (inactive)
- GI50 [13]: 12.6 µM (inactive)
- GI50 [14]: 0.653 µM (active)
- GI50 [15]: 2.75 µM (inactive)
- GI50 [16]: > 64.1 µM (inactive)
- GI50 [17]: 0.118 µM (active)
- GI50 [18]: 19.1 µM (inactive)
- GI50 [19]: 1.5 µM (inactive)
- GI50 [20]: 2.87 µM (inactive)
- GI50 [21]: 5.94 µM (inactive)
- GI50 [22]: > 88.1 µM (inactive)
- GI50 [23]: > 90.8 µM (inactive)
- GI50 [24]: 63.2 µM (inactive)
- GI50 [25]: > 100 µM (inactive)
- GI50 [26]: 4.23 µM (inactive)
- GI50 [27]: > 100 µM (inactive)
- GI50 [28]: 36 µM (inactive)
- GI50 [29]: > 63.2 µM (inactive)
- GI50 [30]: 33.4 µM (inactive)
- GI50 [31]: 34.9 µM (inactive)
- GI50 [32]: 2.01 µM (inactive)
- GI50 [33]: 6.79 µM (inactive)
- GI50 [34]: 2.72 µM (inactive)
- GI50 [35]: 1.93 µM (inactive)
- GI50 [36]: > 83 µM (inactive)
- GI50 [37]: 0.49 µM (active)
- GI50 [38]: 25.8 µM (inactive)
- GI50 [39]: > 68.9 µM (inactive)
- GI50 [40]: 7.43 µM (inactive)
- GI50 [41]: 60 µM (inactive)
- GI50 [42]: 38 µM (inactive)
- GI50 [43]: > 77.3 µM (inactive)
- GI50 [44]: 8.11 µM (inactive)
- GI50 [45]: 52.7 µM (inactive)
- GI50 [46]: 15.3 µM (inactive)
- GI50 [47]: > 59.6 µM (inactive)
- GI50 [48]: 29.7 µM (inactive)
- GI50 [49]: 22.9 µM (inactive)
- GI50 [50]: > 35.6 µM (inactive)
- GI50 [51]: 6.76 µM (inactive)
- GI50 [52]: > 86.5 µM (inactive)
- GI50 [53]: 3.28 µM (inactive)
- GI50 [54]: 28.8 µM (inactive)
- GI50 [55]: 15.2 µM (inactive)
- GI50 [56]: 9.14 µM (inactive)
- GI50 [57]: > 100 µM (inactive)
- GI50 [58]: > 59 µM (inactive)
- GI50 [59]: 4.8 µM (inactive)
